Experimental data: patent US8541460B2, “PDK-1/Akt signaling inhibitors” (The Ohio State University, priority 2003, dated 2013)

What was measured:
phospho-473Ser Akt = test: Western blot of Akt and phospho-Akt in PC-3 cells; assay type: cell-based, human; conditions: 1 μM
Method: Immunoblotting. The general procedure for the Western blot analysis of Akt and phospho-Akt is described as follows. Cells were washed in PBS, resuspended in SDS sample buffer sonicated by an ultrasonic sonicator for 5 sec, and boiled for 5 min. After brief centrifugation, equivalent protein concentrations from the soluble fractions were resolved in 10% SDS-polyacrylamide gels on a Minigel apparatus, and transferred to a nitrocellulose membrane using a semi-dry transfer cell. The transblotted membrane was washed three times with TBS containing 0.05% Tween 20 (TBST). After blocking with TBST containing 5% nonfat milk for 60 min., the membrane was incubated with the primary antibody at 1:1,000 dilution in TBST-5% low fat milk at 4° C. for 12 h, and was then washed three times with TBST. The membrane was probed with goat anti-rabbit IgG-HRP conjugates (1:1,000) for 1 h at room temperature, and was washed with TBST three times. The immunoblots were visualized by enhanced chemiluminescence.

immunoprecipitated Akt = test: Direct inhibition of immunoprecipitated Akt kinase activity; assay type: biochemical, human
COX-2 = COX-2 (Homo sapiens, UniProt P35354); test: COX-2 inhibitory activity; assay type: biochemical; conditions: concentrations up to 50 μM
Chain of COX-2 (P35354 18-604): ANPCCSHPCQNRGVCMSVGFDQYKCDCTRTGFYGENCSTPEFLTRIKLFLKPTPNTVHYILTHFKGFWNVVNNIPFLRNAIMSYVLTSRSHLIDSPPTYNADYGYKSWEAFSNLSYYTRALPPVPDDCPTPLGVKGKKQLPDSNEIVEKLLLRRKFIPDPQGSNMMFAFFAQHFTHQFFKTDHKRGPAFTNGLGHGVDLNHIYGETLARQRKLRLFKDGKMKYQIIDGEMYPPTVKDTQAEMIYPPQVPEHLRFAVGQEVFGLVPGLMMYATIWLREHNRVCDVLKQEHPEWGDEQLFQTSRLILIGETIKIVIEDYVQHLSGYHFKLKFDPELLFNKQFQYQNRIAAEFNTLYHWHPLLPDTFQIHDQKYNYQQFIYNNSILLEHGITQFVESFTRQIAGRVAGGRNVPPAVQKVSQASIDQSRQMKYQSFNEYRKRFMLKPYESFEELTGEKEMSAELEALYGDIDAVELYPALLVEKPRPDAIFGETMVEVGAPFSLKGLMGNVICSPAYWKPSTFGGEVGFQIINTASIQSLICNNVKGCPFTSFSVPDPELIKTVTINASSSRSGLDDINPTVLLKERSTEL

LOX IMVI = test: NCI DTP cell line screen (SRB), Melanoma; assay type: cell-based
Method: (§1) Screening of compounds 70 and 71 against several cancer cell lines The human tumor cell lines of the cancer screening panel are grown in RPMI 1640 medium containing 5% fetal bovine serum and 2 mM L-glutamine. For a typical screening experiment, cells are inoculated into 96 well microtiter plates in 100 μL at plating densities ranging from 5,000 to 40,000 cells/well depending on the doubling time of individual cell lines. After cell inoculation, the microtiter plates are incubated at 37° C., 5% CO2, 95% air and 100% relative humidity for 24 h prior to addition of experimental drugs.
(§2) After 24 h, two plates of each cell line are fixed in situ with TCA, to represent a measurement of the cell population for each cell line at the time of drug addition (Tz). Experimental drugs are solubilized in dimethyl sulfoxide at 400-fold the desired final maximum test concentration and stored frozen prior to use. At the time of drug addition, an aliquot of frozen concentrate is thawed and diluted to twice the desired final maximum test concentration with complete medium containing 50 μg/ml gentamicin. Additional four, 10-fold or ½ log serial dilutions are made to provide a total of five drug concentrations plus control. Aliquots of 100 μl of these different drug dilutions are added to the appropriate microtiter wells already containing 100 μl of medium, resulting in the required final drug concentrations.
(§3) Following drug addition, the plates are incubated for an additional 48 h at 37° C., 5% CO2, 95% air, and 100% relative humidity. For adherent cells, the assay is terminated by the addition of cold TCA. Cells are fixed in situ by the gentle addition of 50 μl of cold 50% (w/v) TCA (final concentration, 10% TCA) and incubated for 60 minutes at 4° C. The supernatant is discarded, and the plates are washed five times with tap water and air dried. Sulforhodamine B (SRB) solution (100 μl) at 0.4% (w/v) in 1% acetic acid is added to each well, and plates are incubated for 10 minutes at room temperature. After staining, unbound dye is removed by washing five times with 1% acetic acid and the plates are air dried. Bound stain is subsequently solubilized with 10 mM trizma base, and the absorbance is read on an automated plate reader at a wavelength of 515 nm. For suspension cells, the methodology is the same except that the assay is terminated by fixing settled cells at the bottom of the wells by gently adding 50 μl of 80% TCA (final concentration, 16% TCA). Using the seven absorbance measurements [time zero, (Tz), control growth, (C), and test growth in the presence of drug at the five concentration levels (Ti)], the percentage growth is calculated at each of the drug concentrations levels. Percentage growth inhibition is calculated as: [(Ti−Tz)/(C−Tz)]×100 for concentrations for which Ti>/=Tz [(Ti−Tz)/Tz]×100 for concentrations for which Ti<Tz
(§4) Three dose response parameters are calculated for each experimental agent. […] The drug concentration resulting in total growth inhibition (TGI) is calculated from Ti=Tz. […] Values are calculated for each of these three parameters if the level of activity is reached; however, if the effect is not reached or is exceeded, the value for that parameter is expressed as greater or less than the maximum or minimum concentration tested.
(§5) The methods described were used to test compounds 70 and 71 on a panel of sixty cell lines under a screening service provided by the Developmental Therapeutics Program at the National Institutes of Health. Shown in FIG. 1C are 1, RPMI-8226 leukemia cells; 2; NCI-H322M non-small cell lung cancer cells; 3, HT29 colon cancer cells; 4, U251 CNS cancer cells; 5, SK-MEL-28 melanoma cancer cells; 6, SK-OV-3 ovarian cancer cells; 7, RXF 393 renal cancer cells; 8, PC-3 prostate cancer cells; 9, MDA-MB-231 breast cancer cells.

M14 = test: NCI DTP cell line screen (SRB), Melanoma; assay type: cell-based
Method: as §1, §2, §3, §4, §5

SK-MEL-2 = test: NCI DTP cell line screen (SRB), Melanoma; assay type: cell-based
Method: as §1, §2, §3, §4, §5

MALME-3M = test: NCI DTP cell line screen (SRB), Melanoma; assay type: cell-based
OVCAR-8 = test: NCI DTP cell line screen (SRB), Ovarian Cancer; assay type: cell-based
Method: as §1, §2, §3, §4, §5

[1] = read-out: LC50 (the source's name)
[2] = OVCAR 8, Log10 Concentration −4.0
[3] = OVCAR 8, Log10 Concentration −5.0
[4] = OVCAR 8, Log10 Concentration −6.0
[5] = OVCAR 8, Log10 Concentration −7.0
[6] = OVCAR 8, Log10 Concentration −8.0

For `NCC(=O)Nc1ccc(-n2nc(C(F)(F)F)cc2-c2ccc3c(ccc4ccccc43)c2)cc1` [Compound 70, 2-Amino-N-{4-[5-(2-phenanthrenyl)-3-(trifluoromethyl)-1H-pyrazol-1-yl]-phenyl}-acetamide], the phospho-Akt level (phospho-473Ser Akt) was “substantial decrease in the phospho-Akt level”, the “direct inhibitory effect on immunoprecipitated Akt activity” value (immunoprecipitated Akt) was “no appreciable direct inhibition” and the COX-2 inhibitory activity (COX-2) was “nor was any measurable COX-2 inhibitory activity detected”. For the same compound, the TGI (LOX IMVI) was 3.07E−06, the “Percent Growth” value (LOX IMVI; Log10 Concentration −5.0) was −50% and the “Percent Growth” value (LOX IMVI; Log10 Concentration −6.0) was 48%. The “Percent Growth” value (LOX IMVI; Log10 Concentration −7.0) was 76%, the “Percent Growth” value (LOX IMVI; Log10 Concentration −8.0) was 105% and the TGI (M14) was 5.37E−06. For the same compound, the “Percent Growth” value (M14; Log10 Concentration −4.0) was −19%, the “Percent Growth” value (M14; Log10 Concentration −5.0) was −33% and the “Percent Growth” value (M14; Log10 Concentration −6.0) was 90%. For the same compound, the “Percent Growth” value (M14; Log10 Concentration −7.0) was 98%, the “Percent Growth” value (M14; Log10 Concentration −8.0) was 98% and the TGI (SK-MEL-2) was 5.40E−06. For the same compound, the “Percent Growth” value (SK-MEL-2; Log10 Concentration −4.0) was −28%, the “Percent Growth” value (SK-MEL-2; Log10 Concentration −5.0) was −37% and the “Percent Growth” value (SK-MEL-2; Log10 Concentration −6.0) was 100%. For the same compound, the “Percent Growth” value (SK-MEL-2; Log10 Concentration −7.0) was 117%, the “Percent Growth” value (SK-MEL-2; Log10 Concentration −8.0) was 114% and the TGI (MALME-3M) was 3.67E−06. The “Percent Growth” value (MALME-3M; Log10 Concentration −4.0) was −56%, the “Percent Growth” value (MALME-3M; Log10 Concentration −5.0) was −67% and the “Percent Growth” value (MALME-3M; Log10 Concentration −6.0) was 87%. For the same compound, the “Percent Growth” value (MALME-3M; Log10 Concentration −7.0) was 93%, the “Percent Growth” value (MALME-3M; Log10 Concentration −8.0) was 92% and the TGI (OVCAR-8; OVCAR-8) was 4.05E−06. For the same compound, the “Percent Growth” value (OVCAR-8; OVCAR-8, Log10 Concentration −4.0) was −24%, the “Percent Growth” value (OVCAR-8; OVCAR-8, Log10 Concentration −5.0) was −33% and the “Percent Growth” value (OVCAR-8; OVCAR-8, Log10 Concentration −6.0) was 51%. For the same compound, the “Percent Growth” value (OVCAR-8; OVCAR-8, Log10 Concentration −7.0) was 102% and the “Percent Growth” value (OVCAR-8; OVCAR-8, Log10 Concentration −8.0) was 97%.
With `N=C(N)Nc1ccc(-n2nc(C(F)(F)F)cc2-c2ccc3c(ccc4ccccc43)c2)cc1` [Compound 71, 4-[5-(2-Phenanthrenyl)-3-(trifluoromethyl)-1H-pyrazol-1-yl]-phenyl-guanidine] the phospho-Akt level (phospho-473Ser Akt) was “substantial decrease in the phospho-Akt level”, the “direct inhibitory effect on immunoprecipitated Akt activity” value (immunoprecipitated Akt) was “no appreciable direct inhibition” and the COX-2 inhibitory activity (COX-2) was “nor was any measurable COX-2 inhibitory activity detected”. The GI50 (LOX IMVI) was 1340 nM, the TGI (LOX IMVI) was 2.65E−06 and the “Mean Optical Densities” value (LOX IMVI; Log10 Concentration −4.0) was 0.165. For the same compound, the “Percent Growth” value (LOX IMVI; Log10 Concentration −4.0) was −53%, the “Mean Optical Densities” value (LOX IMVI; Log10 Concentration −5.0) was 0.008 and the “Percent Growth” value (LOX IMVI; Log10 Concentration −5.0) was −98%. The “Mean Optical Densities” value (LOX IMVI; Log10 Concentration −6.0) was 0.935, the “Percent Growth” value (LOX IMVI; Log10 Concentration −6.0) was 72% and the “Mean Optical Densities” value (LOX IMVI; Log10 Concentration −7.0) was 1.033. The “Percent Growth” value (LOX IMVI; Log10 Concentration −7.0) was 84%, the “Mean Optical Densities” value (LOX IMVI; Log10 Concentration −8.0) was 0.948 and the “Percent Growth” value (LOX IMVI; Log10 Concentration −8.0) was 73%. For the same compound, the CC50 (LOX IMVI; [1]) was 5220 nM, the GI50 (M14) was 1480 nM and the TGI (M14) was 2.80E−06. For the same compound, the “Mean Optical Densities” value (M14; Log10 Concentration −4.0) was 0.210, the “Percent Growth” value (M14; Log10 Concentration −4.0) was −33% and the “Mean Optical Densities” value (M14; Log10 Concentration −5.0) was −0.004. For the same compound, the “Percent Growth” value (M14; Log10 Concentration −5.0) was −100%, the “Mean Optical Densities” value (M14; Log10 Concentration −6.0) was 0.816 and the “Percent Growth” value (M14; Log10 Concentration −6.0) was 81%. For the same compound, the “Mean Optical Densities” value (M14; Log10 Concentration −7.0) was 0.823, the “Percent Growth” value (M14; Log10 Concentration −7.0) was 82% and the “Mean Optical Densities” value (M14; Log10 Concentration −8.0) was 0.772. For the same compound, the “Percent Growth” value (M14; Log10 Concentration −8.0) was 74%, the GI50 (SK-MEL-2) was 1570 nM and the TGI (SK-MEL-2) was 2.91E−06. For the same compound, the “Mean Optical Densities” value (SK-MEL-2; Log10 Concentration −4.0) was 0.324, the “Percent Growth” value (SK-MEL-2; Log10 Concentration −4.0) was −29% and the “Mean Optical Densities” value (SK-MEL-2; Log10 Concentration −5.0) was −0.010. For the same compound, the “Percent Growth” value (SK-MEL-2; Log10 Concentration −5.0) was −100%, the “Mean Optical Densities” value (SK-MEL-2; Log10 Concentration −6.0) was 0.780 and the “Percent Growth” value (SK-MEL-2; Log10 Concentration −6.0) was 87%. The “Mean Optical Densities” value (SK-MEL-2; Log10 Concentration −7.0) was 0.819, the “Percent Growth” value (SK-MEL-2; Log10 Concentration −7.0) was 97% and the “Mean Optical Densities” value (SK-MEL-2; Log10 Concentration −8.0) was 0.775. The “Percent Growth” value (SK-MEL-2; Log10 Concentration −8.0) was 85%, the GI50 (MALME-3M) was 1010 nM and the TGI (MALME-3M) was 2.33E−06. For the same compound, the “Mean Optical Densities” value (MALME-3M; Log10 Concentration −4.0) was 0.333, the “Percent Growth” value (MALME-3M; Log10 Concentration −4.0) was −50% and the “Mean Optical Densities” value (MALME-3M; Log10 Concentration −5.0) was 0.089. The “Percent Growth” value (MALME-3M; Log10 Concentration −5.0) was −87%, the “Mean Optical Densities” value (MALME-3M; Log10 Concentration −6.0) was 0.826 and the “Percent Growth” value (MALME-3M; Log10 Concentration −6.0) was 50%. For the same compound, the “Mean Optical Densities” value (MALME-3M; Log10 Concentration −7.0) was 0.838, the “Percent Growth” value (MALME-3M; Log10 Concentration −7.0) was 54% and the “Mean Optical Densities” value (MALME-3M; Log10 Concentration −8.0) was 0.832. For the same compound, the “Percent Growth” value (MALME-3M; Log10 Concentration −8.0) was 52%, the CC50 (MALME-3M; [1]) was 100000 nM and the GI50 (OVCAR-8; OVCAR 8) was 1690 nM. For the same compound, the TGI (OVCAR-8; OVCAR 8) was 3.05E−06, the “Mean Optical Densities” value (OVCAR-8; [2]) was 0.126 and the “Percent Growth” value (OVCAR-8; [2]) was −69%. For the same compound, the “Mean Optical Densities” value (OVCAR-8; [3]) was −0.001, the “Percent Growth” value (OVCAR-8; [3]) was −100% and the “Mean Optical Densities” value (OVCAR-8; [4]) was 0.934. The “Percent Growth” value (OVCAR-8; [4]) was 94%, the “Mean Optical Densities” value (OVCAR-8; [5]) was 0.946 and the “Percent Growth” value (OVCAR-8; [5]) was 96%. For the same compound, the “Mean Optical Densities” value (OVCAR-8; [6]) was 0.923, the “Percent Growth” value (OVCAR-8; [6]) was 92% and the CC50 (OVCAR-8; OVCAR 8, read-out: LC50 (the source's name)) was 5520 nM.
